Source: EP4470536A1, “COMPOUND FOR USE IN TREATING FIBRODYSPLASIA OSSIFICANS PROGRESSIVA (FOP)” (Queen's University At Kingston, priority 2023, dated 2024)

Key:
CYP26A1 = target: T1, CYP26A1 (Homo sapiens, UniProt O43174); assay: HeLa cell-based inhibitor assay (HeLa-CYP26A1), inhibition of all trans-RA metabolism; conditions: CYP26A1 cells, highest concentration tested (10 µM), Figure 2, read-out: percentage inhibition
T1 construct: expressed in transfected cells; host or cells: HeLa (stably transfected, hygromycin selection)
T1 sequence (O43174 1-497): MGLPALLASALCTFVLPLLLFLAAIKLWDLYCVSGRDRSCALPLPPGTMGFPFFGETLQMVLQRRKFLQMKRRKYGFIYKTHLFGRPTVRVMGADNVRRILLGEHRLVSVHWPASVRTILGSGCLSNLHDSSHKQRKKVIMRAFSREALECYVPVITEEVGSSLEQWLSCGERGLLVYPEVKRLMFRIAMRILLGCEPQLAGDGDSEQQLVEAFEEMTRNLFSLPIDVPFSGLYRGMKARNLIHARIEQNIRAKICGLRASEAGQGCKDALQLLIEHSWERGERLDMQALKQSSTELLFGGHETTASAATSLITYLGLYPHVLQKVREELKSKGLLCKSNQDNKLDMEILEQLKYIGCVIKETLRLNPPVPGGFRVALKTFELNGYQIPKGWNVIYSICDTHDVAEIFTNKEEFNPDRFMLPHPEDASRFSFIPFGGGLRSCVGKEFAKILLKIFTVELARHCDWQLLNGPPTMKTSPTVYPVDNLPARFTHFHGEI
Experimental: CYP26A1 or CYP26B1 cDNA stably transfected HeLa cells were maintained in Minimum Essential Medium (MEM) containing 10% fetal bovine serum (FBS), 1X antibiotic/antimycotic cocktail, and […] hygromycin. Exponentially growing cells were harvested by incubation in trypsin. Cells were then collected and re-plated in 48-well culture plates at 1.5×10^5 (CYP26A1) or 1.5×10^4 (CYP26B1) cells in 0.2 mL of culture medium containing 0.04µCi [^3H]-RA (retinoic acid) in the presence or absence of increasing concentrations of a test compound. The test compound was diluted in dimethyl sulfoxide (DMSO) and then added in duplicate to wells to 0.01 nM, 0.1 nM, 1 nM, 10 nM, 100 nM, 1 µM, and 10 µM final concentrations. Cells were incubated for 3 hours at 37 °C. Retinoids were then extracted using the procedure of Bligh, et al., (1959), Canadian Journal of Biochemistry 37, 911-917, which was modified by using dichloromethane instead of chloroform. Each sample's water-soluble radioactivity level was quantified using a β-scintillation counter (using Ecolume scintillation fluid, available from MP Biomedicals of Solon, OH, USA). IC50 values represented the concentration of inhibitor required to inhibit all trans-RA metabolism by 50%, and were derived from log transformed data.

ectopic bone formation = assay: Surgical mouse model of heterotopic ossification (rhBMP2-soaked collagen disk), micro-CT; type: in vivo, CD-1 mouse; conditions: for Mean bone volume (mm^3) / percent change in HO volume from vehicle mean (%): oral gavage, 13 days, Day 14
Experimental: Heterotopic ossification (HO) driven by Bone Morphogenetic Protein (BMP) signaling has been used as a surrogate model for testing the effectiveness of drugs for treating Fibrodysplasia Ossificans Progressiva (FOP) (see, for example, Shimono K., et al. (2011). Nat Med 17, 454-460.). Collagen disks of 1mm in diameter were punched from a thin collagen foam matrix (Avitene™ Ultrafoam™ Collagen Hemostat product #1050050 lot #WBDP0038, from BD, Franklin Lakes, NJ, USA). Disks were impregnated with 1µg total of recombinant human BMP-2 (GenScript, Piscataway, NJ, USA, catalog #Z02913, lot #P50031712) on the day of surgery (5µl of 200ng/µL BMP-2, reconstituted in 20mM acetic acid solution). The rhBMP2-soaked collagen disk was surgically implanted into a small pocket made in the left gastrocnemius muscle of a 6-8 week-old male CD-1 mouse. Beginning on the day following surgery, mice were administered varying doses of compound 1 by oral gavage once daily (QD) or twice daily (every 12h; BID) for 13 days. Doses administered were: vehicle (Corn oil, QD (5M) and BID (3M) dosing or 3% DMSO in Corn oil (2M)), compound 1 18 mg/kg BID, 18 mg/kg QD, 6 mg/kg BID, 4.5 mg/kg BID, and 2 mg/kg BID (6M per group). Palovarotene high and low doses were used as comparators (1.76 mg/kg (4M) and 0.88 mg/kg QD (6M)). The palovarotene high and low doses were selected based on a study for palovarotene (Inubushi, T., et al. (2018). "Palovarotene Inhibits Osteochondroma Formation in a Mouse Model of Multiple Hereditary Exostoses." J Bone Miner Res 33(4): 658-666.), using oral treatment of mice. The inventors also verified the dose selection based on pharmacokinetic (PK) data generated in-house for palovarotene IP (intraperitoneal) and PO (oral) treatment by using the doses for IP treatment from Lees-Shepard, J. B., et al. (2018).
At the study endpoint (Day 14: 16-30 hours after final compound treatment) left hindlimbs were removed and submitted to micro-CT (micro-computed tomography) imaging. Using this preclinical surgical model, the amount of resulting ectopic bone formation after 14 days was visualized for each of the treatment groups (Figure 6). The highly enhancing regions seen within the gastrocnemius muscle corresponded to the amount of ectopic bone formation generated at the site of collagen disk implantation, following 14 days of vehicle or drug treatment.
The hindlimbs obtained in Example 6 above were submitted to micro-CT imaging. CT images were acquired using a VECTor^4CT pre-clinical scanner (MILabs B.V., Utrecht, Netherlands) equipped with a cone beam X-ray CT system. Scans were carried out with an acceleration voltage of 50 kVp and an X-ray tube current of 430 µA in accurate focus mode to obtain 3600 projections over a 360° scan. With a 40 ms exposure time per step, the total scan procedure took about 5 minutes with an estimated radiation dose of 3077 mGy. CT images were consequently processed using MILabs reconstruction software implementing a voxel size of 20 µm and a Hann projection filter of 25 µm to generate 3-dimensional CT images. For quantification, CT images were converted to DICOM® files using PMOD 3.9 software (PMOD Technologies Ltd., Zurich, Switzerland) for rendering using RadiAnt DICOM Viewer 4.2 software (Medixant, Poznań, Poland). The region-of-interest for all hindlimbs, reconstructed from DICOM files, was defined by outlining sites of ectopic ossification. Analysis of total ectopic bone volume was conducted via automated processes using the AnalyzePro software with the Bone Microarchitecture Analysis (BMA) add-on (AnalyzeDirect, Overland Park, Kansas). This software generates bone volume measurements from the defined area, as described by Bouxsein et al (2010). Journal of Bone and Mineral Research, 25(7), 1468-1486. Using this preclinical surgical model, the ability of compound 1 to inhibit HO (percentage from vehicle), as compared to palovarotene, was assessed and is shown in Figure 7 and in Table 1 below.

With `CC(C)(C)c1cccc(-c2cc3cc(/C=C/C(=O)O)ccc3[nH]2)c1` [Compound 1, (E)-3-(2-(3-(tert-butyl)phenyl)-1H-indol-5-yl)acrylic acid] the inhibition at 10 µM (CYP26A1) was 33%, the “Mean bone volume (mm^3)” value (ectopic bone formation; 2mg/kg BID) was 0.920 mm^3 and the “percent change in HO volume from vehicle mean (%)” value (from here on “percent change in HO volume … (%)”) (ectopic bone formation; 2mg/kg BID) was -52.5%. For the same compound, the “Mean bone volume (mm^3)” value (ectopic bone formation; 4.5mg/kg BID) was 1.205 mm^3, the “percent change in HO volume … (%)” value (ectopic bone formation; 4.5mg/kg BID) was -37.8% and the “Mean bone volume (mm^3)” value (ectopic bone formation; 6mg/kg BID) was 0.212 mm^3. For the same compound, the “percent change in HO volume … (%)” value (ectopic bone formation; 6mg/kg BID) was -89.1%, the “Mean bone volume (mm^3)” value (ectopic bone formation; 18mg/kg BID) was 0.035 mm^3 and the “percent change in HO volume … (%)” value (ectopic bone formation; 18mg/kg BID) was -98.2%. The “Mean bone volume (mm^3)” value (ectopic bone formation; 18mg/kg QD) was 0.436 mm^3, the “percent change in HO volume … (%)” value (ectopic bone formation; 18mg/kg QD) was -77.5% and the ectopic bone formation (ectopic bone formation; 2 to 18 mg/kg, versus vehicle, 14 days) was “dose-dependent decrease in ectopic bone formation”.
